Measurements from US20110002859A1, “CHEWING GUM CONTAINING EUCALYPTUS EXTRACT” (LOTTE CO., LTD., priority 2008, published 2011).
In brackets after ≈: the same amount, converted by molar mass.

Legend:
[1] = test system: Porphyromonas gingivalis ATCC33277; experiment: In vitro antibacterial activity, minimum inhibitory concentration (MIC); format: cell-based; conditions: 37° C., anaerobic, 24 to 48 hours, turbidity 550 nm; read-out: MIC, bacterial strain a
Description: (§1) In vitro antibacterial activities of Macrocarpal A, macrocarpal B, and macrocarpal C were evaluated according to the following procedure. First, to 25 ml of a medium, added were 2.5 ml of various pre-cultured periodontopathic bacteria described below, and the whole was mixed well. A sample solution was prepared by diluting in two stages a sample stock solution on a 96-well plate by using a diluent. Within each well of the 96-well plate, 100 μl of the sample solution and 100 μl of a bacterial solution were mixed, and cultivated at 37° C. under an anaerobic condition for 24 to 48 hours. The turbidity (550 nm) of each well was measured with a microplate reader, the growth of the bacterium was assessed, and its minimum inhibitory concentration (MIC) was determined. […] (Used Bacterial Strain) a: Porphyromonas gingivalis ATCC33277

[2] = test system: Prevotella intermedia ATCC25611; experiment: as above; format: cell-based; conditions: 37° C., anaerobic, 24 to 48 hours, turbidity 550 nm; read-out: MIC, bacterial strain b
Description: as §1, with “b: Prevotella intermedia ATCC25611” for “a: Porphyromonas gingivalis ATCC33277”

[3] = test system: Prevotella melaninogenica ATCC25845; experiment: as above; format: cell-based; conditions: 37° C., anaerobic, 24 to 48 hours, turbidity 550 nm; read-out: MIC, bacterial strain c
Description: as §1, with “c: Prevotella melaninogenica ATCC25845” for “a: Porphyromonas gingivalis ATCC33277”

[4] = test system: Capnocytophaga ochracea ATCC33596; experiment: as above; format: cell-based; conditions: 37° C., anaerobic, 24 to 48 hours, turbidity 550 nm; read-out: MIC, bacterial strain d
Description: as §1, with “d: Capnocytophaga ochracea ATCC33596” for “a: Porphyromonas gingivalis ATCC33277”

[5] = test system: periodontopathic bacteria; experiment: In vitro growth prevention of all tested periodontopathic bacteria; format: cell-based; conditions: all four strains of Table 1
Description: In vitro antibacterial activities of Macrocarpal A, macrocarpal B, and macrocarpal C were evaluated according to the following procedure. First, to 25 ml of a medium, added were 2.5 ml of various pre-cultured periodontopathic bacteria described below, and the whole was mixed well. A sample solution was prepared by diluting in two stages a sample stock solution on a 96-well plate by using a diluent. Within each well of the 96-well plate, 100 μl of the sample solution and 100 μl of a bacterial solution were mixed, and cultivated at 37° C. under an anaerobic condition for 24 to 48 hours. The turbidity (550 nm) of each well was measured with a microplate reader, the growth of the bacterium was assessed, and its minimum inhibitory concentration (MIC) was determined.

[6] = test system: periodontopathic bacteria; conditions: background art; cited from earlier work

MIC [1] [µg/mL]	MIC [2] [µg/mL]	MIC [3] [µg/mL]	MIC [4] [µg/mL]	SMILES	concentration capable of preventing periodontopathic bacteria from growing up [5] [µg/mL]	antibacterial activities against periodontopathic bacteria [6]
0.195 (≈ 0.413 µM)	0.195 (≈ 0.413 µM)	0.78 (≈ 1.65 µM)	0.39 (≈ 0.825 µM)	CC(C)C[C@@H](c1c(O)c(C=O)c(O)c(C=O)c1O)[C@@]1(C)CC[C@@H]2[C@@H]1[C@H]1[C@@H](CC[C@@]2(C)O)C1(C)C [Macrocarpal A, macrocarpal A]	0.78	–
0.78 (≈ 1.65 µM)	1.58 (≈ 3.34 µM)	3.13 (≈ 6.62 µM)	1.56 (≈ 3.3 µM)	CC(C)C[C@H](c1c(O)c(C=O)c(O)c(C=O)c1O)[C@@]1(C)CC[C@@H]2[C@@H]1[C@H]1[C@@H](CC[C@@]2(C)O)C1(C)C [Macrocarpal B, macrocarpal B]	3.13	–
0.195 (≈ 0.429 µM)	0.39 (≈ 0.858 µM)	1.58 (≈ 3.48 µM)	0.39 (≈ 0.858 µM)	C=C1CC[C@@H]2[C@H]([C@H]3[C@H]1CC[C@]3(C)[C@@H](CC(C)C)c1c(O)c(C=O)c(O)c(C=O)c1O)C2(C)C [Macrocarpal C, macrocarpal C]	1.58	–
–	–	–	–	CC12CCC(CC1)C(C)(C)O2 [cineole]	–	weak antibacterial activities
